Reference: US9708314B2, “Heterocyclic amide compound” (NISSAN CHEMICAL INDUSTRIES, LTD., priority 2013, dated 2017)

Experiments:
Type in all cases: in vivo
Cyperus difformis = experiment: Test Example 3: herbicidal effect by application to foliage (Wagner pot, water depth 0.1-0.5 cm); details: Nineteenth Table; application herbicide amount 320 g/ha
How it was run: (§1)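 Three weeks after spraying, each species was graded 0–5 for herbicidal ratio, 5 being 90% or more. Application: water-diluted emulsifiable concentrate at a fixed g/ha to foliage of 14-day-old greenhouse (25–30 °C) plants in alluvial soil.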

[1] = tested on: Echinochloa crus-galli var. crus-galli; experiment: as above; details: Nineteenth Table; application herbicide amount 320 g/ha
How it was run: as §1

Leptochloa chinensis = experiment: as above; details: Nineteenth Table; application herbicide amount 320 g/ha
How it was run: as §1

[2] = tested on: directly sowed Oryza sativa; experiment: Test Example 3: effect on crop by application to foliage (Wagner pot, water depth 0.1-0.5 cm); details: Nineteenth Table; application herbicide amount 320 g/ha
How it was run: as §1

Abutilon theophrasti = experiment: Test Example 4: herbicidal effect by application to foliage (diluvial soil, plastic box); details: application to foliage, application herbicide amount 320 g/ha
How it was run: (§2)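 Read-out is a 0–5 visual grade of herbicidal ratio (5: ≥90%, almost withered; 0: ≤5%) taken three weeks after treatment. Compound was applied as a diluted emulsion to stem and leaf parts of 14-day greenhouse-grown plants (25° C. to 30° C.) at rates expressed as g/ha.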

Alopecurus myosuroides = experiment: as above; details: application to foliage, application herbicide amount 320 g/ha
How it was run: as §2

Apera spica-venti. = experiment: as above; details: application to foliage, application herbicide amount 320 g/ha
How it was run: as §2

Avena fatua = experiment: as above; details: application to foliage, application herbicide amount 320 g/ha
How it was run: as §2

Chenopodium album = experiment: as above; details: application to foliage, application herbicide amount 320 g/ha
How it was run: as §2

Digitaria ciliaris = experiment: as above; details: application to foliage, application herbicide amount 320 g/ha
How it was run: as §2

[3] = tested on: Echinochloa crus-galli var. crus-galli; experiment: as above; details: application to foliage, application herbicide amount 320 g/ha
How it was run: as §2

Galium spurium = experiment: as above; details: application to foliage, application herbicide amount 320 g/ha
How it was run: as §2

Lolium multiflorum Lam. = experiment: as above; details: application to foliage, application herbicide amount 320 g/ha
How it was run: as §2

Setaria viridis = experiment: as above; details: application to foliage, application herbicide amount 320 g/ha
How it was run: as §2

Veronica persica = experiment: as above; details: application to foliage, application herbicide amount 320 g/ha
How it was run: as §2

SMILES | E (Cyperus difformis) herbicidal ratio grade (Cyperus difformis) | H (Echinochloa crus-galli var. crus-galli) herbicidal ratio grade [1] | D (Leptochloa chinensis) herbicidal ratio grade (Leptochloa chinensis) | b (directly sowed Oryza sativa) effect on crop grade [2] | M (Abutilon theophrasti) herbicidal effect (Abutilon theophrasti) | J (Alopecurus myosuroides) herbicidal effect (Alopecurus myosuroides) | L (Apera spica-venti.) herbicidal effect (Apera spica-venti.) | I (Avena fatua) herbicidal effect (Avena fatua) | O (Chenopodium album) herbicidal effect (Chenopodium album) | F (Digitaria ciliaris) herbicidal effect (Digitaria ciliaris) | H (Echinochloa crus-galli var. crus-galli) herbicidal effect [3] | Q (Galium spurium) herbicidal effect (Galium spurium) | K (Lolium multiflorum Lam.) herbicidal effect (Lolium multiflorum Lam.) | G (Setaria viridis) herbicidal effect (Setaria viridis) | R (Veronica persica) herbicidal effect (Veronica persica)
Cc1nnc(NC(=O)c2ccc(C(F)(F)F)n3c(CC(=O)O)nnc23)o1 [1-048] | 3 (Herbicidal ratio of 40% or more and less than 70%) | 5 (Herbicidal ratio of 90% or more (almost completely withered)) | 4 (Herbicidal ratio of 70% or more and less than 90%) | 0 (Herbicidal ratio of 5% or less (almost no effect)) | 5 (Herbicidal ratio of 90% or more (almost completely withered)) | 1 (Herbicidal ratio of 5% or more and less than 20%) | 2 (Herbicidal ratio of 20% or more and less than 40%) | 2 (Herbicidal ratio of 20% or more and less than 40%) | 5 (Herbicidal ratio of 90% or more (almost completely withered)) | 5 (Herbicidal ratio of 90% or more (almost completely withered)) | 5 (Herbicidal ratio of 90% or more (almost completely withered)) | 3 (Herbicidal ratio of 40% or more and less than 70%) | 1 (Herbicidal ratio of 5% or more and less than 20%) | 3 (Herbicidal ratio of 40% or more and less than 70%) | 4 (Herbicidal ratio of 70% or more and less than 90%)
Cc1nnc(NC(=O)c2ccc(C(F)(F)F)n3c(CC(=O)OC(C)C)nnc23)o1 [1-049] | 4 (Herbicidal ratio of 70% or more and less than 90%) | 5 (Herbicidal ratio of 90% or more (almost completely withered)) | 4 (Herbicidal ratio of 70% or more and less than 90%) | 1 (Herbicidal ratio of 5% or more and less than 20%) | 5 (Herbicidal ratio of 90% or more (almost completely withered)) | 2 (Herbicidal ratio of 20% or more and less than 40%) | 3 (Herbicidal ratio of 40% or more and less than 70%) | 0 (Herbicidal ratio of 5% or less (almost no effect)) | 5 (Herbicidal ratio of 90% or more (almost completely withered)) | 5 (Herbicidal ratio of 90% or more (almost completely withered)) | 5 (Herbicidal ratio of 90% or more (almost completely withered)) | 3 (Herbicidal ratio of 40% or more and less than 70%) | 2 (Herbicidal ratio of 20% or more and less than 40%) | 4 (Herbicidal ratio of 70% or more and less than 90%) | 4 (Herbicidal ratio of 70% or more and less than 90%)
CC(C)c1nnc2c(C(=O)Nc3nnco3)ccc(C(F)(F)F)n12 [1-050] | 5 (Herbicidal ratio of 90% or more (almost completely withered)) | 5 (Herbicidal ratio of 90% or more (almost completely withered)) | 5 (Herbicidal ratio of 90% or more (almost completely withered)) | 1 (Herbicidal ratio of 5% or more and less than 20%) | 5 (Herbicidal ratio of 90% or more (almost completely withered)) | 2 (Herbicidal ratio of 20% or more and less than 40%) | 3 (Herbicidal ratio of 40% or more and less than 70%) | 3 (Herbicidal ratio of 40% or more and less than 70%) | 5 (Herbicidal ratio of 90% or more (almost completely withered)) | 5 (Herbicidal ratio of 90% or more (almost completely withered)) | 5 (Herbicidal ratio of 90% or more (almost completely withered)) | 2 (Herbicidal ratio of 20% or more and less than 40%) | 3 (Herbicidal ratio of 40% or more and less than 70%) | 4 (Herbicidal ratio of 70% or more and less than 90%) | 5 (Herbicidal ratio of 90% or more (almost completely withered))
CC(C)c1nnc2c(C(=O)Nc3nnc(C4CC4)o3)ccc(C(F)(F)F)n12 [1-051] | 4 (Herbicidal ratio of 70% or more and less than 90%) | 4 (Herbicidal ratio of 70% or more and less than 90%) | 5 (Herbicidal ratio of 90% or more (almost completely withered)) | 0 (Herbicidal ratio of 5% or less (almost no effect)) | 5 (Herbicidal ratio of 90% or more (almost completely withered)) | 0 (Herbicidal ratio of 5% or less (almost no effect)) | 1 (Herbicidal ratio of 5% or more and less than 20%) | 1 (Herbicidal ratio of 5% or more and less than 20%) | 5 (Herbicidal ratio of 90% or more (almost completely withered)) | 3 (Herbicidal ratio of 40% or more and less than 70%) | 4 (Herbicidal ratio of 70% or more and less than 90%) | 2 (Herbicidal ratio of 20% or more and less than 40%) | 1 (Herbicidal ratio of 5% or more and less than 20%) | 3 (Herbicidal ratio of 40% or more and less than 70%) | 3 (Herbicidal ratio of 40% or more and less than 70%)
COCCc1nnc(NC(=O)c2ccc(C(F)(F)F)n3c(C(C)C)nnc23)o1 [1-052] | 5 (Herbicidal ratio of 90% or more (almost completely withered)) | 4 (Herbicidal ratio of 70% or more and less than 90%) | 5 (Herbicidal ratio of 90% or more (almost completely withered)) | 0 (Herbicidal ratio of 5% or less (almost no effect)) | 4 (Herbicidal ratio of 70% or more and less than 90%) | 1 (Herbicidal ratio of 5% or more and less than 20%) | 3 (Herbicidal ratio of 40% or more and less than 70%) | 0 (Herbicidal ratio of 5% or less (almost no effect)) | 5 (Herbicidal ratio of 90% or more (almost completely withered)) | 3 (Herbicidal ratio of 40% or more and less than 70%) | 2 (Herbicidal ratio of 20% or more and less than 40%) | 1 (Herbicidal ratio of 5% or more and less than 20%) | 1 (Herbicidal ratio of 5% or more and less than 20%) | 1 (Herbicidal ratio of 5% or more and less than 20%) | 3 (Herbicidal ratio of 40% or more and less than 70%)
Cc1nnc(NC(=O)c2ccc(C(F)F)n3c(C(C)C)nnc23)o1 [1-053] | 4 (Herbicidal ratio of 70% or more and less than 90%) | 4 (Herbicidal ratio of 70% or more and less than 90%) | 4 (Herbicidal ratio of 70% or more and less than 90%) | 0 (Herbicidal ratio of 5% or less (almost no effect)) | 4 (Herbicidal ratio of 70% or more and less than 90%) | 0 (Herbicidal ratio of 5% or less (almost no effect)) | 0 (Herbicidal ratio of 5% or less (almost no effect)) | 1 (Herbicidal ratio of 5% or more and less than 20%) | 5 (Herbicidal ratio of 90% or more (almost completely withered)) | 3 (Herbicidal ratio of 40% or more and less than 70%) | 3 (Herbicidal ratio of 40% or more and less than 70%) | 2 (Herbicidal ratio of 20% or more and less than 40%) | 0 (Herbicidal ratio of 5% or less (almost no effect)) | 2 (Herbicidal ratio of 20% or more and less than 40%) | 4 (Herbicidal ratio of 70% or more and less than 90%)
